From the supplement of paper PMC10307832

Experiments:
Assay in all cases: relative viability (nuclei count vs DMSO), 5 days (fraction); higher = more cells survive
A-427 = test system: A-427
Procedure, shortened: (§1)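 Relative viability equals treated-well nuclei counts divided by vehicle-well nuclei counts. Counts came from 4× images of lung cancer cell lines grown in 1536-well plates for 5 days after pin-tool dosing on the day after seeding. Dosing used one drug alone or a fixed anchor-drug dose plus five library-drug doses (not always all listed) in √10 steps, and values are medians of duplicate plates.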

EKVX = test system: EKVX
Procedure, shortened: as §1

H3255 = test system: H3255
Procedure, shortened: as §1

LK-2 = test system: LK-2
Procedure, shortened: as §1

NCI-H1355 = test system: NCI-H1355
Procedure, shortened: as §1

NCI-H1650 = test system: NCI-H1650
Procedure, shortened: as §1

NCI-H1666 = test system: NCI-H1666
Procedure, shortened: as §1

NCI-H1755 = test system: NCI-H1755
Procedure, shortened: as §1

NCI-H1944 = test system: NCI-H1944
Procedure, shortened: as §1

NCI-H2085 = test system: NCI-H2085
Procedure, shortened: as §1

NCI-H2228 = test system: NCI-H2228
Procedure, shortened: as §1

NCI-H2347 = test system: NCI-H2347
Procedure, shortened: as §1

NCI-H3122 = test system: NCI-H3122
Procedure, shortened: as §1

NCI-H322M = test system: NCI-H322M
Procedure, shortened: as §1

NCI-H358 = test system: NCI-H358
Procedure, shortened: as §1

NCI-H460 = test system: NCI-H460
Procedure, shortened: as §1

NCI-H520 = test system: NCI-H520
Procedure, shortened: as §1

NCI-H596 = test system: NCI-H596
Procedure, shortened: as §1

NCI-H650 = test system: NCI-H650
Procedure, shortened: as §1

NCI-H838 = test system: NCI-H838
Procedure, shortened: as §1

SW 1573 = test system: SW 1573
Procedure, shortened: as §1

Cc1cnc(-c2cnc(NCCNc3ccc(C#N)cn3)nc2-c2ccc(Cl)cc2Cl)[nH]1 + CS(=O)(=O)CCNCc1ccc(-c2ccc3ncnc(Nc4ccc(OCc5cccc(F)c5)c(Cl)c4)c3c2)o1 [Lapatinib] (partner 2 µM)
relative viability (A-427; first compound 0.08 µM): 1.03 | relative viability (A-427; first compound 0.253 µM): 0.942 | relative viability (A-427; first compound 0.8 µM): 1.09 | relative viability (A-427; first compound 2.53 µM): 1.03 | relative viability (EKVX; first compound 0.08 µM): 0.235 | relative viability (EKVX; first compound 0.253 µM): 0.222 | relative viability (EKVX; first compound 2.53 µM): 0.224 | relative viability (H3255; first compound 0.08 µM): 0.28 | relative viability (H3255; first compound 0.253 µM): 0.249 | relative viability (H3255; first compound 0.8 µM): 0.219 | relative viability (H3255; first compound 2.53 µM): 0.244 | relative viability (LK-2; first compound 0.08 µM): 1.1 | relative viability (LK-2; first compound 0.253 µM): 0.885 | relative viability (LK-2; first compound 0.8 µM): 0.928 | relative viability (LK-2; first compound 2.53 µM): 0.897 | relative viability (NCI-H1355; first compound 0.08 µM): 1.06 | relative viability (NCI-H1355; first compound 0.253 µM): 0.8 | relative viability (NCI-H1355; first compound 0.8 µM): 0.95 | relative viability (NCI-H1355; first compound 2.53 µM): 0.909 | relative viability (NCI-H1650; first compound 0.08 µM): 0.842 | relative viability (NCI-H1650; first compound 0.253 µM): 0.668 | relative viability (NCI-H1650; first compound 0.8 µM): 0.387 | relative viability (NCI-H1650; first compound 2.53 µM): 0.555 | relative viability (NCI-H1666; first compound 0.08 µM): 0.768 | relative viability (NCI-H1666; first compound 0.253 µM): 0.554 | relative viability (NCI-H1666; first compound 0.8 µM): 0.595 | relative viability (NCI-H1666; first compound 2.53 µM): 0.62 | relative viability (NCI-H1755; first compound 0.08 µM): 1.04 | relative viability (NCI-H1755; first compound 0.253 µM): 0.785 | relative viability (NCI-H1755; first compound 0.8 µM): 1.06 | relative viability (NCI-H1755; first compound 2.53 µM): 1.07 | relative viability (NCI-H1944; first compound 0.08 µM): 0.858 | relative viability (NCI-H1944; first compound 0.8 µM): 0.776 | relative viability (NCI-H1944; first compound 2.53 µM): 0.872 | relative viability (NCI-H2085; first compound 0.08 µM): 0.837 | relative viability (NCI-H2085; first compound 0.253 µM): 0.8 | relative viability (NCI-H2085; first compound 0.8 µM): 0.786 | relative viability (NCI-H2085; first compound 2.53 µM): 0.848 | relative viability (NCI-H2228; first compound 0.08 µM): 1.23 | relative viability (NCI-H2228; first compound 0.253 µM): 0.904 | relative viability (NCI-H2228; first compound 0.8 µM): 0.911 | relative viability (NCI-H2228; first compound 2.53 µM): 0.781 | relative viability (NCI-H2347; first compound 0.08 µM): 0.862 | relative viability (NCI-H2347; first compound 0.253 µM): 0.649 | relative viability (NCI-H2347; first compound 0.8 µM): 1.06 | relative viability (NCI-H2347; first compound 2.53 µM): 1.02 | relative viability (NCI-H3122; first compound 0.08 µM): 0.977 | relative viability (NCI-H3122; first compound 0.253 µM): 0.933 | relative viability (NCI-H3122; first compound 0.8 µM): 0.997 | relative viability (NCI-H3122; first compound 2.53 µM): 1.03 | relative viability (NCI-H322M; first compound 0.08 µM): 0.575 | relative viability (NCI-H322M; first compound 0.253 µM): 0.565 | relative viability (NCI-H322M; first compound 0.8 µM): 0.594 | relative viability (NCI-H322M; first compound 2.53 µM): 0.555 | relative viability (NCI-H358; first compound 0.08 µM): 0.43 | relative viability (NCI-H358; first compound 0.253 µM): 0.49 | relative viability (NCI-H358; first compound 0.8 µM): 0.412 | relative viability (NCI-H358; first compound 2.53 µM): 0.401 | relative viability (NCI-H460; first compound 0.08 µM): 0.943 | relative viability (NCI-H460; first compound 0.253 µM): 0.826 | relative viability (NCI-H460; first compound 0.8 µM): 0.864 | relative viability (NCI-H460; first compound 2.53 µM): 0.775 | relative viability (NCI-H520; first compound 0.08 µM): 0.962 | relative viability (NCI-H520; first compound 0.253 µM): 0.823 | relative viability (NCI-H520; first compound 0.8 µM): 0.93 | relative viability (NCI-H520; first compound 2.53 µM): 0.891 | relative viability (NCI-H596; first compound 0.08 µM): 1.04 | relative viability (NCI-H596; first compound 0.253 µM): 0.994 | relative viability (NCI-H596; first compound 0.8 µM): 1.09 | relative viability (NCI-H596; first compound 2.53 µM): 1.02 | relative viability (NCI-H650; first compound 0.08 µM): 0.926 | relative viability (NCI-H650; first compound 0.253 µM): 1.12 | relative viability (NCI-H650; first compound 0.8 µM): 0.478 | relative viability (NCI-H650; first compound 2.53 µM): 0.789 | relative viability (NCI-H838; first compound 0.08 µM): 1.12 | relative viability (NCI-H838; first compound 0.253 µM): 0.858 | relative viability (NCI-H838; first compound 0.8 µM): 1.11 | relative viability (NCI-H838; first compound 2.53 µM): 1.27 | relative viability (SW 1573; first compound 0.08 µM): 1.02 | relative viability (SW 1573; first compound 0.253 µM): 1.04 | relative viability (SW 1573; first compound 0.8 µM): 1.1 | relative viability (SW 1573; first compound 2.53 µM): 1.02
